Measured values published in ChEMBL document CHEMBL1671707, “Mycobacterium tuberculosis dihydrofolate reductase is not a target relevant to the antitubercular activity of isoniazid” (Antimicrob Agents Chemother, 2010).
In brackets after ≈: the same amount, converted by molar mass. Activity calls are given as the source filed them. No cut-off for these calls is given here.

Assays:
[1] = tested on: Mycolicibacterium smegmatis; experiment: Antimicrobial activity against Mycobacterium smegmatis MC2 4517 by broth microdilution method; type: functional
[2] = tested on: Mycolicibacterium smegmatis; experiment: Ratio of MIC for Mycobacterium smegmatis overexpressing dfrA gene to MIC for wild-type Mycobacterium smegmatis; type: functional
Dihydrofolate reductase = target: T1, Dihydrofolate reductase (Mycobacterium tuberculosis, UniProt P9WNX1); experiment: Inhibition of Mycobacterium tuberculosis dihydrofolate reductase
T1 sequence (P9WNX1 whole entry): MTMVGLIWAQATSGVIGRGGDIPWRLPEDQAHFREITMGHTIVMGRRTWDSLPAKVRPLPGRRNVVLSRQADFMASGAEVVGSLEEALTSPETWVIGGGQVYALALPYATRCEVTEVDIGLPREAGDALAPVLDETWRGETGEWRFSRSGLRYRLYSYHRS

[3] = tested on: Mycolicibacterium smegmatis; experiment: Antimicrobial activity against Mycobacterium smegmatis MC2 5071 overexpressing InhA gene assessed as growth inhibition at 10 ug/ml; type: functional, organism-based
[4] = tested on: Mycolicibacterium smegmatis; experiment: Antimicrobial activity against Mycobacterium smegmatis MC2 5071 overexpressing InhA gene assessed as growth inhibition at 150 ug/ml; type: functional, organism-based
Escherichia coli = experiment: Antimicrobial activity against Escherichia coli expressing katG and dfrA gene; type: functional, organism-based
[5] = tested on: Mycolicibacterium smegmatis; experiment: Antimicrobial activity against Mycobacterium smegmatis MC2 5069 assessed as growth inhibition at 50 ug/ml; type: functional, organism-based
[6] = tested on: Mycolicibacterium smegmatis; experiment: Antimicrobial activity against Mycobacterium smegmatis MC2 5072 overexpressing dhfr gene assessed as growth inhibition at 120 ug/ml; type: functional, organism-based
[7] = tested on: Mycolicibacterium smegmatis; experiment: Antimicrobial activity against Mycobacterium smegmatis MC2 5071 overexpressing InhA gene assessed as growth inhibition at 50 ug/ml; type: functional, organism-based
[8] = tested on: Mycolicibacterium smegmatis; experiment: Antimicrobial activity against Mycobacterium smegmatis MC2 5069 assessed as growth inhibition at 150 ug/ml; type: functional, organism-based
[9] = tested on: Mycolicibacterium smegmatis; experiment: Antimicrobial activity against Mycobacterium smegmatis MC2 5072 overexpressing dhfr gene assessed as growth inhibition at 10 ug/ml; type: functional, organism-based
[10] = tested on: Mycobacterium tuberculosis; experiment: Antimicrobial activity against wild-type Mycobacterium tuberculosis H37Rv by MTT assay; type: functional
[11] = tested on: Mycolicibacterium smegmatis; experiment: Antimicrobial activity against Mycobacterium smegmatis MC2 5071 overexpressing InhA gene assessed as growth inhibition at 120 ug/ml; type: functional, organism-based

CCc1cc(C(N)=S)ccn1 [ETHIONAMIDE]
MIC [1]: 9.4 µg/mL (≈ 56.5 µM)

NNC(=O)c1ccncc1 [ISONIAZID]
Ratio [2]: 2
Ki (Dihydrofolate reductase): 1 nM
Activity [3]: inactive
Activity [4]: Active
Activity (Escherichia coli): inactive
MIC [1]: 4.7 µg/mL (≈ 34.3 µM)
Activity [5]: Active
Activity [6]: Active
Activity [7]: Active
Activity [8]: Active
Activity [9]: Active
MIC [10]: 0.06 µg/mL (≈ 0.438 µM)
Activity [11]: inactive
